Measured values: patent publication US20100298141A1, “SUBSTITUTED PYRIDINE N-OXIDE HERBICIDES” (E. I. DU PONT DE NEMOURS AND COMPANY, priority 2007, published 2010)

Key:
Test in all cases: Test F preemergence test
annual bluegrass = assay type: in vivo, Poa annua; settings: scale 0 to 100
Text: (§1) Seeds of plant species selected from bermudagrass (Cynodon dactylon), Surinam grass (Brachiaria decumbens), large crabgrass (Digitaria sanguinalis), green foxtail (Setaria viridis), goosegrass (Eleusine indica), johnsongrass (Sorghum halepense), kochia (Kochia scoparia), pitted morningglory (Ipomoea lacunosa), purple nutsedge (Cyperus rotundus), common ragweed (Ambrosia elation), mustard (Brassica nigra), guineagrass (Panicum maximum), […] (Paspalum dilatatum), barnyardgrass (Echinochloa crus-galli), southern sandbur (Cenchrus echinatus), common sowthistle (Sonchus oleraceous), prickly […] spinosa), Italian ryegrass (Lolium multiflorum), common purslane (Portulaca oleracea), broadleaf signalgrass (Brachiaria platyphylla), common groundsel (Senecio vulgaris), common chickweed (Stellaria media), Virginia dayflower (Commelina virginica), annual bluegrass (Poa annua), naked crabgrass (Digitaria nuda), […] cochinchinensis), quackgrass (Elytrigia repens), Canada horseweed (Conyza canadensis), field bindweed (Convolvulus arvensis), […] (Bidens bipinnata), common mallow (Malva sylvestris), Russian thistle (Salsola kali), and sugarcane (Saccharum officinarum) were planted and treated preemergence with test chemicals formulated in a non-phytotoxic solvent mixture which included a surfactant. At a different time, sugarcane was treated with postemergence applications of some of the test chemicals formulated in the same manner. Plants were approximately 3- to 4-leaf stage for the postemergence treatments. Treated plants and controls were maintained in a greenhouse for 14 to 21 days, after which time all species were compared to controls and visually evaluated. […] A dash (-) response means no test result.

common mallow = assay type: in vivo, Malva sylvestris; settings: scale 0 to 100
Text: as §1

prickly sida = assay type: in vivo, Sida spinosa; settings: scale 0 to 100
Text: as §1

naked crabgrass = assay type: in vivo, Digitaria nuda; settings: scale 0 to 100
Text: as §1

bermudagrass = assay type: in vivo, Cynodon dactylon; settings: scale 0 to 100
Text: as §1

dallisgrass = assay type: in vivo, Paspalum dilatatum; settings: scale 0 to 100
Text: as §1

mustard = assay type: in vivo, Brassica nigra; settings: scale 0 to 100
Text: as §1

Virginia dayflower = assay type: in vivo, Commelina virginica; settings: scale 0 to 100
Text: as §1

barnyardgrass = assay type: in vivo, Echinochloa crus-galli
Text: as §1

broadleaf signalgrass = assay type: in vivo, Brachiaria platyphylla; settings: scale 0 to 100
Text: as §1

kochia = assay type: in vivo, Kochia scoparia; settings: scale 0 to 100
Text: as §1

purple nutsedge = assay type: in vivo, Cyperus rotundus; settings: scale 0 to 100
Text: as §1

guineagrass = assay type: in vivo, Panicum maximum; settings: scale 0 to 100
Text: as §1

pitted morningglory = assay type: in vivo, Ipomoea lacunosa; settings: scale 0 to 100
Text: as §1

quackgrass = assay type: in vivo, Elytrigia repens; settings: scale 0 to 100
Text: as §1

common purslane = assay type: in vivo, Portulaca oleracea; settings: scale 0 to 100
Text: as §1

## Cc1cc[n+]([O-])c(S(=O)(=O)C(Cl)c2c(C(F)(F)F)nn(C)c2OCC(F)(F)F)c1 (racemic) [Compound 37]
Annual bluegrass; 16 g ai/ha, preemergence
  Plant response rating, Bluegrass: 0
Annual bluegrass; 62 g ai/ha, Preemergence
  Bluegrass plant response rating: 60
Annual bluegrass; 125 g ai/ha, preemergence
  Bluegrass plant response rating: 80
Annual bluegrass; Preemergence, 31 g ai/ha
  Plant response rating, Bluegrass: 10
Common mallow; 16 g ai/ha, preemergence
  Plant response rating, Mallow: 0
Common mallow; 62 g ai/ha, Preemergence
  Mallow plant response rating: 0
Common mallow; 125 g ai/ha, preemergence
  Mallow plant response rating: 90
Common mallow; Preemergence, 31 g ai/ha
  Plant response rating, Mallow: 0
Prickly sida; 16 g ai/ha, preemergence
  Plant response rating, Prickly Sida: 0
Prickly sida; 62 g ai/ha, Preemergence
  Prickly Sida plant response rating: 35
Prickly sida; 125 g ai/ha, preemergence
  Prickly Sida plant response rating: 90
Prickly sida; Preemergence, 31 g ai/ha
  Plant response rating, Prickly Sida: 15
Naked crabgrass; 16 g ai/ha, preemergence
  Plant response rating, Crabgrass, Naked: 40
Naked crabgrass; 62 g ai/ha, Preemergence
  Crabgrass, Naked plant response rating: 40
Naked crabgrass; 125 g ai/ha, preemergence
  Crabgrass, Naked plant response rating: 100
bermudagrass; 16 g ai/ha, preemergence
  Plant response rating, Bermudagrass: 35
bermudagrass; 62 g ai/ha, Preemergence
  Bermudagrass plant response rating: 65
bermudagrass; 125 g ai/ha, preemergence
  Bermudagrass plant response rating: 75
bermudagrass; Preemergence, 31 g ai/ha
  Plant response rating, Bermudagrass: 35
dallisgrass; 16 g ai/ha, preemergence
  Plant response rating, Dallisgrass: 0
dallisgrass; 62 g ai/ha, Preemergence
  Dallisgrass plant response rating: 75
dallisgrass; 125 g ai/ha, preemergence
  Dallisgrass plant response rating: 100
dallisgrass; Preemergence, 31 g ai/ha
  Plant response rating, Dallisgrass: 25
mustard; 16 g ai/ha, preemergence
  Plant response rating, Black Mustard: 0
mustard; 62 g ai/ha, Preemergence
  Black Mustard plant response rating: 50
mustard; 125 g ai/ha, preemergence
  Black Mustard plant response rating: 100
mustard; Preemergence, 31 g ai/ha
  Plant response rating, Black Mustard: 15
Virginia dayflower; 16 g ai/ha, preemergence
  Plant response rating, Dayflower: 0
Virginia dayflower; 62 g ai/ha, Preemergence
  Dayflower plant response rating: 100
Virginia dayflower; 125 g ai/ha, preemergence
  Dayflower plant response rating: 100
Virginia dayflower; Preemergence, 31 g ai/ha
  Plant response rating, Dayflower: 90
barnyardgrass; 16 g ai/ha, preemergence, scale 0 to 100 (0 no effect, 100 complete control)
  Plant response rating, Barnyardgrass: 20
barnyardgrass; 62 g ai/ha, Preemergence, scale 0 to 100
  Barnyardgrass plant response rating: 100
barnyardgrass; 125 g ai/ha, preemergence, scale 0 to 100
  Barnyardgrass plant response rating: 100
barnyardgrass; Preemergence, 31 g ai/ha, scale 0 to 100
  Plant response rating, Barnyardgrass: 40
Broadleaf signalgrass; 16 g ai/ha, preemergence
  Plant response rating, Signalgrass: 20
Broadleaf signalgrass; 125 g ai/ha, preemergence
  Signalgrass plant response rating: 95
Broadleaf signalgrass; Preemergence, 62 g ai/ha
  Plant response rating, Signalgrass: 65
Broadleaf signalgrass; Preemergence, 31 g ai/ha
  Plant response rating, Signalgrass: 35
kochia; 16 g ai/ha, preemergence
  Plant response rating, Kochia: 0
kochia; 62 g ai/ha, Preemergence
  Kochia plant response rating: 0
kochia; 125 g ai/ha, preemergence
  Kochia plant response rating: 0
kochia; Preemergence, 31 g ai/ha
  Plant response rating, Kochia: 0
Purple nutsedge; 16 g ai/ha, preemergence
  Plant response rating, Purple Nutsedge: 0
Purple nutsedge; 62 g ai/ha, Preemergence
  Purple Nutsedge plant response rating: 0
Purple nutsedge; 125 g ai/ha, preemergence
  Purple Nutsedge plant response rating: 0
Purple nutsedge; Preemergence, 31 g ai/ha
  Plant response rating, Purple Nutsedge: 0
guineagrass; 16 g ai/ha, preemergence
  Plant response rating, Guineagrass: 65
guineagrass; 62 g ai/ha, Preemergence
  Guineagrass plant response rating: 85
guineagrass; 125 g ai/ha, preemergence
  Guineagrass plant response rating: 100
guineagrass; Preemergence, 31 g ai/ha
  Plant response rating, Guineagrass: 75
Pitted morningglory; 16 g ai/ha, preemergence
  Plant response rating, Morningglory: 0
Pitted morningglory; 62 g ai/ha, Preemergence
  Morningglory plant response rating: 0
Pitted morningglory; 125 g ai/ha, preemergence
  Morningglory plant response rating: 35
Pitted morningglory; Preemergence, 31 g ai/ha
  Plant response rating, Morningglory: 0
quackgrass; 16 g ai/ha, preemergence
  Plant response rating, Quackgrass: 0
quackgrass; 62 g ai/ha, Preemergence
  Quackgrass plant response rating: 25
quackgrass; 125 g ai/ha, preemergence
  Quackgrass plant response rating: 70
quackgrass; Preemergence, 31 g ai/ha
  Plant response rating, Quackgrass: 25
Common purslane; 16 g ai/ha, preemergence
  Plant response rating, Purslane: 0
Common purslane; 62 g ai/ha, Preemergence
  Purslane plant response rating: 25
Common purslane; 125 g ai/ha, preemergence
  Purslane plant response rating: 50
Common purslane; Preemergence, 31 g ai/ha
  Plant response rating, Purslane: 0
